Measurements taken from patent publication US20260258172A1, “CATIONIC POLYMERS WITH SELECTIVE ANTIFUNGAL PROPERTIES” (Uniwersytet Jagiellonski, priority 2022, published 2026).

How the values were obtained:
Format in all cases: cell-based
[1] = test system: Trichophyton tonsurans DSM 12285; test: Antifungal microdilution MIC test; settings: DSM12285, comparative test
Experimental: (§1) In vitro tests of the antifungal activity of the polymers were performed with respect to selected fungal species obtained from international culture collections and the microorganism collection in the Department of Infection Control and Mycology, Chair of Microbiology, Jagiellonian University Medical College. The test was performed using the microdilution method in a liquid medium on flat-bottomed, 96-well polypropylene titration plates. The applied methodology was based on antifungal susceptibility testing procedures developed by the European Committee on Antimicrobial Susceptibility Testing (EUCAST) and on the Hancock Lab procedure for antimicrobial cationic peptides.
(§2) The test compounds were dissolved in sterile distilled water and starting concentrations of 5 g/L were prepared, from which a series of two-fold dilutions in water were obtained. Respective polymer dilutions were transferred in a volume of 20 μL on titration plates (wells 1-10). 20 μL of sterile distilled water was transferred to each of wells 11 and 12. Wells 1-11 were inoculated with fungi in a volume of 180 μL of fungal cell suspensions in a liquid medium, and 180 μL of the sterile medium was transferred to well 12. Fungal suspensions were prepared from fresh cultures on agar media by collecting spores using a sterile swab into sterile distilled water or sterile distilled water with Tween-20 added. Suspensions of certain strains were filtered to remove any hyphal elements (filters with a pore diameter of 20 μm and 10 μm were used). The suspensions were brought to a density of 0.5 on the McFarland scale, and subsequently diluted to 1:20 in a liquid RPMI-1640 medium with L-glutamine and without sodium bicarbonate, supplemented with glucose (2%) and buffered morpholinopropanesulfonic acid (MOPS) (0.165 mol/L).
(§3) Final polymer concentrations on plates after adding fungal suspensions in the liquid medium were 0.49-250 mg/L or 0.98-500 mg/L.
(§4) Incubation was performed at room temperature, 27° C., 37° C., depending on the fungal species, until fungal growth was obtained in growth control (well 11). After the incubation period, fungal growth was evaluated visually and the lowest polymer concentrations that caused complete fungal growth inhibition (MIC (minimal inhibitory concentration) values) were determined.
(§5) A test was performed on selected fungal strains to compare MIC values of the PMAPTAC133 polymer with the MIC values of two known antifungal drugs (terbinafine and ciclopirox), used in the treatment of fungal infections of glabrous skin, hairy skin and nails.
(§6) The procedure described in the section above (Example 8) was used in the testing.
(§7) The drugs were dissolved in dimethyl sulfoxide (DMSO) and starting concentrations of 4 g/L were prepared, from which series of two-fold dilutions in DMSO were obtained. Respective […] concentrations were diluted to 1:100 in sterile water and subsequently transferred to wells 1-10 on a titration plate in a volume of 20 μL. Wells 11 and 12 were filled up with 20 μL DMSO diluted to 1:10 in water. Wells 1-11 were inoculated with fungi in a volume of 180 μL of fungal cell suspensions in a liquid medium, and […] of the sterile medium was transferred to well 12. Final drug concentrations on plates after adding fungal suspensions in the liquid medium were 0.008-4 mg/L.

[2] = test system: Aspergillus brasiliensis ATCC 16404; test: Antifungal microdilution MIC test; settings: Aspergillus brasiliensis, ATCC16404, comparative test
Experimental: as §1, §2, §3, §4, §5, §6, §7

Trichophyton rubrum D197 = test: Antifungal microdilution MIC test; settings: comparative test
Experimental: as §1, §2, §3, §4, §5, §6, §7

Trichophyton rubrum D320 = test: Antifungal microdilution MIC test; settings: comparative test
Experimental: as §1, §2, §3, §4, §5, §6, §7

[3] = test system: Candida albicans ATCC 90028; test: Antifungal microdilution MIC test; settings: ATCC90028, comparative test
Experimental: as §1, §2, §3, §4, §5, §6, §7

[4] = test system: Scopulariopsis brevicaulis DSM 9122; test: Antifungal microdilution MIC test; settings: DSM9122, comparative test
Experimental: as §1, §2, §3, §4, §5, §6, §7

[5] = test system: Trichophyton interdigitale D182; test: Antifungal microdilution MIC test; settings: comparative test
Experimental: as §1, §2, §3, §4, §5, §6, §7

[6] = test system: Trichophyton mentagrophytes ATCC 18484; test: Antifungal microdilution MIC test; settings: Trichophyton mentagrophytes, ATCC18484, comparative test
Experimental: as §1, §2, §3, §4, §5, §6, §7

[7] = test system: Aspergillus fumigatus DSM 819; test: Antifungal microdilution MIC test; settings: Aspergillus fumigatus, DSM819, comparative test
Experimental: as §1, §2, §3, §4, §5, §6, §7

[8] = test system: Aspergillus flavus ATCC 204304; test: Antifungal microdilution MIC test; settings: Aspergillus flavus, ATCC204304, comparative test
Experimental: as §1, §2, §3, §4, §5, §6, §7

Cryptococcus neoformans = test: Antifungal microdilution MIC test; settings: comparative test; for MIC: Cryptococcus neoformans
Experimental: as §1, §2, §3, §4, §5, §6, §7

[9] = test system: Aspergillus fumigatus SU 56; test: Antifungal microdilution MIC test; settings: Aspergillus fumigatus, SU56, comparative test
Experimental: as §1, §2, §3, §4, §5, §6, §7

[10] = test system: Trichophyton rubrum DSM 16111; test: Antifungal microdilution MIC test; settings: DSM16111, comparative test
Experimental: as §1, §2, §3, §4, §5, §6, §7

[11] = test system: Trichophyton tonsurans 264; test: Antifungal microdilution MIC test; settings: comparative test
Experimental: as §1, §2, §3, §4, §5, §6, §7

[12] = test system: Scopulariopsis brevicaulis 34; test: Antifungal microdilution MIC test; settings: comparative test
Experimental: as §1, §2, §3, §4, §5, §6, §7

[13] = test system: Fusarium solani strain 155; test: Antifungal microdilution MIC test; settings: comparative test
Experimental: as §1, §2, §3, §4, §5, §6, §7

[14] = test system: Trichophyton interdigitale 251; test: Antifungal microdilution MIC test; settings: comparative test
Experimental: as §1, §2, §3, §4, §5, §6, §7

[15] = test system: Trichophyton interdigitale DSM4167; test: Antifungal microdilution MIC test; settings: comparative test
Experimental: as §1, §2, §3, §4, §5, §6, §7

[16] = test system: Aspergillus terreus DSM 1958; test: Antifungal microdilution MIC test; settings: Aspergillus terreus, DSM1958, comparative test
Experimental: as §1, §2, §3, §4, §5, §6, §7

Fusarium solani DSM 1164 = test: Antifungal microdilution MIC test; settings: DSM1164, comparative test
Experimental: as §1, §2, §3
as §4, with “determined. […]” for “determined.”

Fusarium oxysporum 109 = test: Antifungal microdilution MIC test; settings: comparative test
Experimental: as §1, §2, §3
as §4, with “determined. […]” for “determined.”

Candida krusei ATCC 6258 = test: Antifungal microdilution MIC test; settings: Pichia kudriavzevii, ATCC6258, comparative test
Experimental: as §1, §2, §3
as §4, with “determined. […]” for “determined.”

[17] = test system: Fusarium oxysporum DSM 841; test: Antifungal microdilution MIC test; settings: DSM841, comparative test
Experimental: as §1, §2, §3
as §4, with “determined. […]” for “determined.”

[18] = test system: Candida glabrata ATCC 15545; test: Antifungal microdilution MIC test; settings: Nakaseomyces glabratus, ATCC15545, comparative test
Experimental: as §1, §2, §3
as §4, with “determined. […]” for “determined.”

HaCaT cell line = test: Neutral red uptake toxicity test, HaCaT keratinocytes; settings: human, 24 h, 5 μg/mL
Experimental: The testing was performed in the HaCaT cell line, a nontumorigenic, immortalized human keratinocyte line. The DMEM medium was used in the culture, including a modification with 10% fetal bovine serum added. 24 h after seeding and successful adhesion, the polymer dissolved in the medium was added to the cells (the medium was first replaced with a serum-free medium in serum-free experiments), and viable cells were quantified after another 24 h using the neutral red uptake assay.
The toxicity of terbinafine and ciclopirox, two commercially used antifungal drugs, was evaluated in similar conditions (the same cell line, medium composition and exposure time). As for ciclopirox, the serum-free medium was not used because the drug strongly interacts with serum and testing in a serum-free medium would have been unreliable. The results are shown in graphs in FIG. 8 and FIG. 9.

[19] = test system: 3T3-L1 murine embryonic fibroblast line; test: Neutral red uptake toxicity test, 3T3-L1 fibroblasts; settings: medium with serum, 24 h exposure
Experimental: Preliminary tests were conducted in the 3T3-L1 murine embryonic fibroblast line (ATCC, CL-173™), an immortalized line (highly tolerant cells). DMEM was used as the medium. 24 h after seeding and successful adhesion, polymers dissolved in the medium were added to the cells (the medium was first replaced with a serum-free medium in serum-free experiments), and viable cells were quantified after another 24 h using the neutral red uptake assay.
The toxicity of ciclopirox and terbinafine, two commercially used antifungal drugs, was evaluated in similar conditions (the same cell line, medium composition and exposure time).

- MIC ([1]; incubation time 48 h): > 4 µg/mL
- MIC ([1]; incubation time 72 h): > 4 µg/mL
- MIC ([2]; incubation time 24 h): > 4 µg/mL
- MIC ([2]; incubation time 48 h): > 4 µg/mL
- MIC (Trichophyton rubrum D197; incubation time 48 h): > 4 µg/mL
- MIC (Trichophyton rubrum D197; incubation time 72 h): > 4 µg/mL
- MIC (Trichophyton rubrum D320; incubation time 24 h): > 4 µg/mL
- MIC (Trichophyton rubrum D320; incubation time 48 h): > 4 µg/mL
- MIC (Trichophyton rubrum D320; incubation time 72 h): > 4 µg/mL
- MIC ([3]; incubation time 24 h): > 4 µg/mL
- MIC ([3]; incubation time 48 h): > 4 µg/mL
- MIC ([4]; incubation time 24 h): > 4 µg/mL
- MIC ([4]; incubation time 48 h): > 4 µg/mL
- MIC ([5]; incubation time 24 h): > 4 µg/mL
- MIC ([5]; incubation time 48 h): > 4 µg/mL
- MIC ([5]; incubation time 72 h): > 4 µg/mL
- MIC ([6]; incubation time 24 h): > 4 µg/mL
- MIC ([6]; incubation time 48 h): > 4 µg/mL
- MIC ([6]; incubation time 72 h): > 4 µg/mL
- MIC ([7]; incubation time 24 h): > 4 µg/mL
- MIC ([7]; incubation time 48 h): > 4 µg/mL
- MIC ([8]; incubation time 24 h): > 4 µg/mL
- MIC ([8]; incubation time 48 h): > 4 µg/mL
- MIC (Cryptococcus neoformans; incubation time 24 h): > 4 µg/mL
- MIC (Cryptococcus neoformans; incubation time 48 h): > 4 µg/mL
- MIC ([9]; incubation time 24 h): > 4 µg/mL
- MIC ([9]; incubation time 48 h): > 4 µg/mL
- MIC ([10]; incubation time 24 h): > 4 µg/mL
- MIC ([10]; incubation time 48 h): > 4 µg/mL
- MIC ([10]; incubation time 72 h): > 4 µg/mL
- MIC ([11]; incubation time 48 h): > 4 µg/mL
- MIC ([11]; incubation time 72 h): > 4 µg/mL
- MIC ([12]; incubation time 24 h): > 4 µg/mL
- MIC ([12]; incubation time 48 h): > 4 µg/mL
- MIC ([13]; incubation time 24 h): > 4 µg/mL
- MIC ([13]; incubation time 48 h): > 4 µg/mL
- MIC ([14]; incubation time 24 h): > 4 µg/mL
- MIC ([14]; incubation time 48 h): > 4 µg/mL
- MIC ([14]; incubation time 72 h): > 4 µg/mL
- MIC ([15]; incubation time 24 h): > 4 µg/mL
- MIC ([15]; incubation time 48 h): > 4 µg/mL
- MIC ([15]; incubation time 72 h): > 4 µg/mL
- MIC ([16]; incubation time 24 h): > 4 µg/mL
- MIC ([16]; incubation time 48 h): > 4 µg/mL
- MIC (Fusarium solani DSM 1164; incubation time 24 h): > 4 µg/mL
- MIC (Fusarium solani DSM 1164; incubation time 48 h): > 4 µg/mL
- MIC (Fusarium oxysporum 109; incubation time 24 h): > 4 µg/mL
- MIC (Fusarium oxysporum 109; incubation time 48 h): > 4 µg/mL
- MIC (Candida krusei ATCC 6258; incubation time 24 h): > 4 µg/mL
- MIC (Candida krusei ATCC 6258; incubation time 48 h): > 4 µg/mL
- MIC ([17]; incubation time 24 h): > 4 µg/mL
- MIC ([17]; incubation time 48 h): > 4 µg/mL
- MIC ([18]; incubation time 24 h): > 4 µg/mL
- MIC ([18]; incubation time 48 h): > 4 µg/mL
Structure (SMILES): Cc1cc(C2CCCCC2)n(O)c(=O)c1 [Ciclopirox, ciclopirox]
- concentration with slight growth suppression (Cryptococcus neoformans; incubation time 24 h): >4 slight mg/L
- reduction of viable keratinocyte cells compared to the control (HaCaT cell line): 30%
- concentration at which the number of viable cells decreased to less than 50% [19]: ≥ 5000 ng/mL
